Measured values taken from patent US8809348B2, “6-arylmethyl substituted pyrazolo[3,4-d]pyrimidines” (Boehringer Ingelheim International GmbH, priority 2003, dated 2014).
pIC50: −log10 of the molar value. Structures can show the parent of a compound that is named as a salt. Each block holds one compound with its values, some of them ahead of it.

Tests used:
PDE9A [1] = molecular target: T1, PDE9A (Homo sapiens, UniProt O76083); details: concentrations of up to 100 μM; cited from earlier work
Murine PDE9A = molecular target: T2, Murine PDE9A (Mus musculus, UniProt O70628); details: concentrations below 200 μM; cited from earlier work
T2 sequence (O70628 1-534): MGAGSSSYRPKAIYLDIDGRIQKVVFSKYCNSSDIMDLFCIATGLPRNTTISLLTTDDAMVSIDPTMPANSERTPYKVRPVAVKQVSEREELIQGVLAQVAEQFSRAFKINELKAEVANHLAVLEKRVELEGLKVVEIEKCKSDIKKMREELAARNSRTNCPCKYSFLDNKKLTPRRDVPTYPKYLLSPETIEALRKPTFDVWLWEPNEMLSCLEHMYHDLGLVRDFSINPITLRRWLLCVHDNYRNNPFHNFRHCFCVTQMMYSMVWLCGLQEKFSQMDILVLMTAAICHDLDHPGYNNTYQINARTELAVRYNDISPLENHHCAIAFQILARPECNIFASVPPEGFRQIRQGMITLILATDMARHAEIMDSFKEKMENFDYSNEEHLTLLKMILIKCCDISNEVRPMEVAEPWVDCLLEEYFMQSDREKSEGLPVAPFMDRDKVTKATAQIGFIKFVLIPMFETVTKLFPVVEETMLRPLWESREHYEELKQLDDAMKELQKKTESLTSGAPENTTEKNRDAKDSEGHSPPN

PDE9A [2] = molecular target: T1, PDE9A; assay: PDE inhibition: recombinant PDE9A scintillation proximity assay; format: biochemical; design: made in house; host or cells: Sf9 cells (pFASTBAC baculovirus expression system); details: inhibiting effect on PDE9A, recombinant enzyme expressed in Sf9 cells, [8-3H]cGMP substrate
Excerpt: Recombinant PDE1C (GenBank/EMBL Accession Number: NM_005020, Loughney et al. J. Biol. Chem. 1996 271, 796-806), PDE2A (GenBank/EMBL Accession Number: NM_002599, Rosman et al. Gene 1997 191, 89-95), PDE3B (GenBank/EMBL Accession Number: NM_000922, Miki et al. Genomics 1996, 36, 476-485), PDE4B (GenBank/EMBL Accession Number: NM_002600, Obernolte et al. Gene. 1993, 129, 239-247), PDE5A (GenBank/EMBL Accession Number: NM_001083, Loughney et al. Gene 1998, 216, 139-147), PDE7B (GenBank/EMBL Accession Number: NM_018945, Hetman et al. Proc. Natl. Acad. Sci. U.S.A. 2000, 97, 472-476), PDE8A (GenBank/EMBL Accession Number: AF 056490, Fisher et al. Biochem. Biophys. Res. Commun. 1998 246, 570-577), PDE9A (Fisher et al., J. Biol. Chem., 1998, 273 (25): 15559-15564), E10A (GenBank/EMBL Accession Number: NM_06661, Fujishige et al. J Biol Chem. 1999, 274, 18438-45), PDE11A (GenBank/EMBL Accession Number: NM_016953, Fawcett et al. Proc. Natl. Acad. Sci. 2000, 97, 3702-3707) were expressed in Sf9 cells with the aid of the pFASTBAC baculovirus expression system (GibcoBRL).
The test substances are dissolved in 100% DMSO and serially diluted to determine their in vitro effect on PDE 9A. Typically, serial dilutions from 200 μM to 1.6 μM are prepared (resulting final concentrations in the assay: 4 μM to 0.032 μM). 2 μL portions of the diluted substance solutions are introduced into the wells of microtiter plates (Isoplate; Wallac Inc., Atlanta, Ga.). Then 50 μL of a dilution of the PDE9A preparation described above are added. The dilution of the PDE9A preparation is chosen so that less than 70% of the substrate is converted during the subsequent incubation (typical dilution: 1:10000; dilution buffer: 50 mM Tris/HCl pH 7.5, 8.3 mM MgCl2, 1.7 mM EDTA, 0.2% BSA). The substrate, [8-^3H] guanosine 3′,5′-cyclic phosphate (1 μCi/μL; Amersham Pharmacia Biotech., Piscataway, N.J.) is diluted 1:2000 with assay buffer (50 mM Tris/HCl pH 7.5, 8.3 mM MgCl2, 1.7 mM EDTA) to a concentration of 0.0005 μCi/μL. The enzyme reaction is finally started by adding 50 μL (0.025 μCi) of the diluted substrate. The assay mixtures are incubated at room temperature for 60 min and the reaction is stopped by adding 25 μl of a PDE9A inhibitor (e.g. the inhibitor from preparation example 1, final concentration 10 μM) dissolved in assay buffer. Immediately thereafter, 25 μL of a suspension containing 18 mg/mL Yttrium Scintillation Proximity Beads (Amersham Pharmacia Biotech., Piscataway, N.J.) are added. […] The plates are then measured for 30 s per well in a Microbeta scintillation counter (Wallac Inc., Atlanta, Ga.). IC50 values are determined from the graphical plot of the substance concentration versus the percentage inhibition. […]

T1 sequence (O76083 whole entry): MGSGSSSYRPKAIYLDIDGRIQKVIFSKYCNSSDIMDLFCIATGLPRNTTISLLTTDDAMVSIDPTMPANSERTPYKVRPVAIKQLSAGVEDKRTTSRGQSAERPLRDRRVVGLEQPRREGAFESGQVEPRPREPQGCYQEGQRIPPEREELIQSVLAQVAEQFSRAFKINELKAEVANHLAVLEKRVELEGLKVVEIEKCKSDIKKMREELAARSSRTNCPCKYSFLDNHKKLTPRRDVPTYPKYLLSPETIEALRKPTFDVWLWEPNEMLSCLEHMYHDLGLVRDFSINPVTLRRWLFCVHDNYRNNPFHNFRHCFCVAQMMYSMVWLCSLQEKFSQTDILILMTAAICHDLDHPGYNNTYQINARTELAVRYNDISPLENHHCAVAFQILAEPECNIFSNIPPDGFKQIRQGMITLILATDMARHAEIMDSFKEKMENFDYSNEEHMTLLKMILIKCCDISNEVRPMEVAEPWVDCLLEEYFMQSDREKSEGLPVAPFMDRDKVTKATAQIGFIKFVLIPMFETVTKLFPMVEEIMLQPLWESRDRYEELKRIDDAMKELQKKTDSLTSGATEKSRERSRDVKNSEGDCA

Compound: OCCN(CCO)c1nc(N2CCCCC2)c2nc(N(CCO)CCO)nc(N3CCCCC3)c2n1 [dipyridamole]
inhibition on the isolated enzyme (PDE9A [1]): no inhibition

Compound: COc1ccc(C2CNC(=O)C2)cc1OC1CCCC1 (stereo not drawn) [rolipram]
inhibition on the isolated enzyme (PDE9A [1]): no inhibition

Compound: Cc1ccccc1-n1ncc2c(=O)[nH]c(Cc3ccccn3)nc21 (as salt: sodium) [Example 17, 1-(2-Methylphenyl)-6-(2-pyridinylmethyl)-1,5-dihydro-4H-pyrazolo[3,4-d]pyrimidin-4-one]
melting point: 162 °C

Compound: CC(C)Cn1c(=O)n(C)c(=O)c2[nH]cnc21 [IBMX]
inhibition on the isolated enzyme (PDE9A [1]): no inhibition
inhibition of murine PDE9A (Murine PDE9A): not inhibited

Compound: Cc1ccccc1-n1ncc2c(=O)[nH]c(Cc3cccc(Cl)c3)nc21 (as salt: sodium) [Example 16, 6-(3-Chlorobenzyl)-1-(2-methylphenyl)-1,5-dihydro-4H-pyrazolo[3,4-d]pyrimidin-4-one]
melting point: 215 °C

Compound: Cc1cccc(-n2ncc3c(=O)[nH]c(Cc4cccc(Cl)c4)nc32)c1C [Example 2, 6-(3-Chlorobenzyl)-1-(2,3-dimethylphenyl)-1,5-dihydropyrazolo[3,4-d]pyrimidin-4-one]
pIC50 (PDE9A [2]): 7.30

Compound: O=c1[nH]c(Cc2cccc(Cl)c2)nc2c1cnn2-c1c(Cl)cccc1Cl [Example 4, 6-(3-Chlorobenzyl)-1-(2,6-dichlorophenyl)-1,5-dihydropyrazolo[3,4-d]pyrimidin-4-one]
pIC50 (PDE9A [2]): 7.19

Compound: Cc1ccccc1-n1ncc2c(=O)[nH]c(Cc3ccccc3Br)nc21 [Example 9, 6-(2-Bromobenzyl)-1-(2-methylphenyl)-1,5-dihydropyrazolo[3,4-d]pyrimidin-4-one]
pIC50 (PDE9A [2]): > 7.52

Compound: CC(=O)Nc1ccc(-c2c[nH]c(=O)cn2)cc1 [SKF94120]
inhibition on the isolated enzyme (PDE9A [1]): no inhibition

Compound: CCOC(=O)C1=C[C@]2(CC)CCCN3CCc4c(n1c1ccccc41)[C@@H]32 [vinpocetine]
inhibition on the isolated enzyme (PDE9A [1]): no inhibition

Results, then the compound that gave them:

melting point: 188 °C
Compound: O=c1[nH]c(Cc2cccc(Cl)c2)nc2c1cnn2-c1ccccc1Cl (as salt: sodium) [Example 21, 6-(3-Chlorobenzyl)-1-(2-chlorophenyl)-1,5-dihydro-4H-pyrazolo[3,4-d]pyrimidin-4-one]

melting point: 197 °C
Compound: O=c1[nH]c(Cc2cccc(Cl)c2)nc2c1cnn2-c1ccccc1F (as salt: sodium) [Example 20, 6-(3-Chlorobenzyl)-1-(2-fluorophenyl)-1,5-dihydro-4H-pyrazolo[3,4-d]pyrimidin-4-one]

melting point: 230 °C
Compound: O=c1[nH]c(Cc2cccc(Cl)c2)nc2c1cnn2-c1ccccn1 (as salt: sodium) [Example 22, 6-(3-Chlorobenzyl)-1-(2-pyridinyl)-1,5-dihydro-4H-pyrazolo[3,4-d]pyrimidin-4-one]

melting point: 152 °C
Compound: O=c1[nH]c(Cc2cccc(Cl)c2)nc2c1cnn2-c1ccccc1C(F)(F)F (as salt: sodium) [Example 19, 6-(3-Chlorobenzyl)-1-(2-trifluoromethylphenyl)-1,5-dihydro-4H-pyrazolo[3,4-d]pyrimidin-4-one]

melting point: 196 °C
Compound: COc1ccccc1-n1ncc2c(=O)[nH]c(Cc3cccc(Cl)c3)nc21 (as salt: sodium) [Example 23, 6-(3-Chlorobenzyl)-1-(2-methoxyphenyl)-1,5-dihydro-4H-pyrazolo[3,4-d]pyrimidin-4-one]

melting point: 208 °C
Compound: CCc1ccccc1-n1ncc2c(=O)[nH]c(Cc3cccc(Cl)c3)nc21 (as salt: sodium) [Example 18, 6-(3-Chlorobenzyl)-1-(2-ethylphenyl)-1,5-dihydro-4H-pyrazolo[3,4-d]pyrimidin-4-one]

pIC50 (PDE9A [2]): > 7.52
Compound: O=c1[nH]c(Cc2cccc(Cl)c2)nc2c1cnn2-c1ccccc1Cl [Example 21, 6-(3-Chlorobenzyl)-1-(2-chlorophenyl)-1,5-dihydro-4H-pyrazolo[3,4-d]pyrimidin-4-one]
